Values joined by “and” are separate entries in the source; they are usually repeats but may differ in a detail not shown here. Equal entries are not always repeated. Where two headings read alike, the source gives them in different places.
Assay: Plasma exposure (dried blood spot) after single oral dose
Type: in vivo
Conditions: rat; for concentration at 5 h / concentration at 6 h / concentration at 24 h: Sprague Dawley, po, 3 mg/kg, oral 3 mg/kg; for concentration at 24 h / Unbound Concentration, individual animals / Concentration, individual animals: 24 h
Protocol: Male Sprague Dawley rats at 6 to 7 weeks were dosed orally by p.o. gavage with different doses of BTTQ formulated in 1% hydroxyethlycellulose (Dow Corning, Midland, MI, United States) (w/v), 0.25% polysorbate 80 (Sigma-Aldrich, St. Louis, MO, United States) (v/v), and 0.05% antifoam (v/v; Dow Corning, Midland, MI, United States) in purified water. Following dosing, ear temperature was measured by using a k-type thermocouple probe digital thermometer (Cole Parmer) every hour for 6 h and then at 24 h. Blood samples for plasma exposure measurement were obtained at the same time. Blood was collected via a tail snip directly into a 20-μL EDTA-coated capillary and immediately spotted onto a Whatman DMPK-C DBS card (GE Healthcare Bio-Sciences). Tail snips were performed by removing approximately 1 mm of the tail by using a scalpel. Blood flow was initiated by gentle squeezing of the tail. No analgesia or anesthesia was used during blood collections. A single sample and spot were collected per time point. The DBS cards were allowed to dry for approximately 2 h at room temperature, after which the cards were placed in a zip-top bag, stored, and shipped at ambient temperature.

For `O=c1c2nnc(C3(C4CC4)CC3)n2c2c(n1CC1CC1)CCCC2` [BTTQ, 1-[1,1′-bi(cyclopropyl)-1-yl]-5-(cyclopropylmethyl)-6,7,8,9-tetrahydro[1,2,4]triazolo[4,3-A]quinoxaline-4(5H)-one], which concentration at 5 h (male, whole blood (dried blood spot), 5 h, dried blood spot, read-out: Concentration, Mean) is on record?
Its concentration at 5 h is 2170 nM.

What about the concentration at 5 h (male, whole blood (dried blood spot), 5 h, dried blood spot, read-out: Concentration, individual animals) of the same compound?
Its concentration at 5 h is 2680 nM.

And the concentration at 6 h (male, whole blood (dried blood spot), 6 h, FU 0.053, read-out: Unbound Concentration, Mean)?
The concentration at 6 h was 93.5 nM.

What about the concentration at 6 h (male, whole blood (dried blood spot), 6 h, FU 0.053, read-out: Unbound Concentration, individual animals) of the same compound?
The concentration at 6 h was 98.1 nM.

What about the concentration at 6 h (male, whole blood (dried blood spot), 6 h, dried blood spot, read-out: Concentration, Mean) of the same compound?
Its concentration at 6 h is 1760 nM.

And the concentration at 6 h (male, whole blood (dried blood spot), 6 h, dried blood spot, read-out: Concentration, individual animals)?
Its concentration at 6 h is 1850 nM.

What about the concentration at 24 h (male, whole blood (dried blood spot), FU 0.053, read-out: Unbound Concentration, Mean) of the same compound?
Its concentration at 24 h is 5 nM.

And the concentration at 24 h (male, whole blood (dried blood spot), dried blood spot, read-out: Concentration, Mean)?
The concentration at 24 h was 94.2 nM.

And the half-life (male, whole blood (dried blood spot), after oral administration, Sprague Dawley rats)?
The half-life was roughly 4 h.

What about the concentration at 4 h (oral 0.03 mg/kg, 5 h, FU 0.053, 0.03 mg/kg, read-out: Unbound Concentration, individual animals) of the same compound?
The concentration at 4 h was 1.35 nM and 1.39 nM (2×) and 1.51 nM.

And the concentration at 4 h (oral 0.03 mg/kg, 5 h, dried blood spot, 0.03 mg/kg, read-out: Concentration, individual animals)?
Its concentration at 4 h is 25.4 nM and 26.3 nM and 28.4 nM and 26.2 nM.

What about the concentration at 4 h (oral 0.03 mg/kg, 6 h, FU 0.053, 0.03 mg/kg, read-out: Unbound Concentration, individual animals) of the same compound?
Its concentration at 4 h is 1.93 nM and 0.917 nM and 0.906 nM and 0.938 nM and 1.13 nM.

What about the concentration at 4 h (oral 0.03 mg/kg, 6 h, dried blood spot, 0.03 mg/kg, read-out: Concentration, individual animals) of the same compound?
The concentration at 4 h was 36.4 nM and 17.3 nM and 17.1 nM and 17.7 nM and 21.4 nM.

What about the “Unbound Concentration, individual animals” value (“Unbound Concentration” below) (oral 0.03 mg/kg, FU 0.053) of the same compound?
Its value is “BQL”.

And the “Concentration, individual animals” value (oral 0.03 mg/kg, dried blood spot)?
The value was “BQL”.

And the concentration at 4 h (oral 0.1 mg/kg, 1 h, FU 0.053, 0.1 mg/kg, read-out: Unbound Concentration, individual animals)?
Its concentration at 4 h is 12.1 nM and 9.12 nM and 9.54 nM and 9.28 nM.

What about the concentration at 4 h (oral 0.1 mg/kg, 1 h, dried blood spot, 0.1 mg/kg, read-out: Concentration, individual animals) of the same compound?
The concentration at 4 h was 229 nM and 172 nM and 180 nM and 175 nM.

And the concentration at 4 h (oral 0.1 mg/kg, 2 h, FU 0.053, 0.1 mg/kg, read-out: Unbound Concentration, individual animals)?
The concentration at 4 h was 10.2 nM and 10.1 nM and 8.9 nM and 9.22 nM.

And the concentration at 4 h (oral 0.1 mg/kg, 2 h, dried blood spot, 0.1 mg/kg, read-out: Concentration, individual animals)?
Its concentration at 4 h is 193 nM and 190 nM and 168 nM and 174 nM.

And the concentration at 4 h (oral 0.1 mg/kg, 3 h, FU 0.053, 0.1 mg/kg, read-out: Unbound Concentration, individual animals)?
The concentration at 4 h was 8.96 nM and 9.91 nM and 7.63 nM and 9.49 nM.

What about the concentration at 4 h (oral 0.1 mg/kg, 3 h, dried blood spot, 0.1 mg/kg, read-out: Concentration, individual animals) of the same compound?
Its concentration at 4 h is 169 nM and 187 nM and 144 nM and 179 nM.

What about the concentration at 4 h (oral 0.1 mg/kg, 4 h, FU 0.053, 0.1 mg/kg, read-out: Unbound Concentration, individual animals) of the same compound?
Its concentration at 4 h is 7.05 nM and 7.21 nM and 4.67 nM and 7.74 nM.

And the concentration at 4 h (oral 0.1 mg/kg, 4 h, dried blood spot, 0.1 mg/kg, read-out: Concentration, individual animals)?
The concentration at 4 h was 133 nM and 136 nM and 88.1 nM and 146 nM.

What about the concentration at 4 h (oral 0.1 mg/kg, 5 h, FU 0.053, 0.1 mg/kg, read-out: Unbound Concentration, individual animals) of the same compound?
The concentration at 4 h was 5.35 nM and 4.7 nM and 3.91 nM and 5.72 nM.

And the concentration at 4 h (oral 0.1 mg/kg, 5 h, dried blood spot, 0.1 mg/kg, read-out: Concentration, individual animals)?
The concentration at 4 h was 101 nM and 88.7 nM and 73.7 nM and 108 nM.

And the concentration at 4 h (oral 0.1 mg/kg, 6 h, FU 0.053, 0.1 mg/kg, read-out: Unbound Concentration, individual animals)?
Its concentration at 4 h is 5.83 nM and 4.21 nM and 3.48 nM and 4.92 nM.

And the concentration at 4 h (oral 0.1 mg/kg, 6 h, dried blood spot, 0.1 mg/kg, read-out: Concentration, individual animals)?
Its concentration at 4 h is 110 nM and 79.5 nM and 65.7 nM and 92.8 nM.

And the “Unbound Concentration” value (oral 0.1 mg/kg, FU 0.053, 0.1 mg/kg)?
Its value is “BQL”.

And the “Concentration, individual animals” value (oral 0.1 mg/kg, dried blood spot, 0.1 mg/kg)?
The value was “BQL”.

What about the concentration at 4 h (oral 0.3 mg/kg, 1 h, FU 0.053, 0.3 mg/kg, read-out: Unbound Concentration, individual animals) of the same compound?
The concentration at 4 h was 19.2 nM and 31.4 nM and 33.8 nM and 30 nM.

What about the concentration at 4 h (oral 0.3 mg/kg, 1 h, dried blood spot, 0.3 mg/kg, read-out: Concentration, individual animals) of the same compound?
The concentration at 4 h was 362 nM and 593 nM and 638 nM and 566 nM.

And the concentration at 4 h (oral 0.3 mg/kg, 2 h, FU 0.053, 0.3 mg/kg, read-out: Unbound Concentration, individual animals)?
Its concentration at 4 h is 25.4 nM and 27.8 nM and 21 nM and 25 nM.

What about the concentration at 4 h (oral 0.3 mg/kg, 2 h, dried blood spot, 0.3 mg/kg, read-out: Concentration, individual animals) of the same compound?
The concentration at 4 h was 479 nM and 525 nM and 397 nM and 472 nM.

And the concentration at 4 h (oral 0.3 mg/kg, 3 h, FU 0.053, 0.3 mg/kg, read-out: Unbound Concentration, individual animals)?
The concentration at 4 h was 14.8 nM and 17.4 nM and 17.1 nM and 19.2 nM.

What about the concentration at 4 h (oral 0.3 mg/kg, 3 h, dried blood spot, 0.3 mg/kg, read-out: Concentration, individual animals) of the same compound?
Its concentration at 4 h is 280 nM and 328 nM and 323 nM and 363 nM.

What about the concentration at 4 h (oral 0.3 mg/kg, 4 h, FU 0.053, 0.3 mg/kg, read-out: Unbound Concentration, individual animals) of the same compound?
The concentration at 4 h was 12.1 nM (2×) and 11.3 nM and 11.1 nM.

And the concentration at 4 h (oral 0.3 mg/kg, 4 h, dried blood spot, 0.3 mg/kg, read-out: Concentration, individual animals)?
Its concentration at 4 h is 229 nM (2×) and 213 nM and 210 nM.

What about the concentration at 4 h (oral 0.3 mg/kg, 5 h, FU 0.053, 0.3 mg/kg, read-out: Unbound Concentration, individual animals) of the same compound?
The concentration at 4 h was 8 nM.

And the “Unbound Concentration” value (oral 0.3 mg/kg, FU 0.053)?
The value was “BQL”.

And the “Concentration, individual animals” value (oral 0.3 mg/kg, dried blood spot)?
Its value is “BQL”.

— publication PMC7506137, “Selective Phosphodiesterase 1 Inhibitor BTTQ Reduces Blood Pressure in Spontaneously Hypertensive and Dahl Salt Sensitive Rats: Role of Peripheral Vasodilation” (Frontiers in Physiology, 2020)
